The source of these data is US11401279B2, “Pyrido[3,2-d]pyrimidine compounds as immunomodulators” (Incyte Corporation, priority 2019, dated 2022).

Molecules are shown by their SMILES.

By EC50 is commonly meant the concentration that produces a half-maximal response. In general, IC50 refers to the concentration at which inhibition is half-maximal. As usually defined, the clearance is the rate of elimination divided by the concentration. Lower therefore signals inefficient removal. What is called half-life is how long it takes for the measured level to halve. A low value points to fast loss. As usually defined, the Cmax is the maximum level reached in the sampled fluid or tissue.

Data set [1] has as its system PD-L1 aAPC/CHO-K1 cells and Jurkat-PD-1-NFAT effector cells. Description: Nuclear factor of activated T-cells (NFAT) assay. The conditions noted are these: Cricetulus griseus, CHO-K1; luminescence, 24 hours. Format: cell-based. On the procedure: PD-L1 aAPC/CHO-Klcells (Promega) were maintained in F-12 medium with addition of 10% FBS, 200 μg/mL Hygromycin B, 250 μg/mL Geneticin (G418). Jurkat-PD-1-NFAT effector cells (Promega) were cultured in RPMI 1640 medium supplemented with 10% FBS, 100 μg/mL Hygromycin B, 500 μg/mL G418. The culture media of PD-L1 aAPC/CHO-K1 cells were first replaced with assay medium (RPMI1640 medium with 1% FBS). The PD-L1 aAPC/CHO-Klcells were then added in a white 384-well white clear bottom assay plate (CELLCOAT® Tissue Culture Plates, Greiner Bio-One) at 8000 per well in 10 μL assay medium. Test compounds were prepared by serial dilution in DMSO and 0.8 μL test compounds in DMSO were first transferred to the 384 REMP plate well (Thermofisher) by PlateMate Plus (Thermofisher) followed with addition of 50 μL plating medium. 5 μL compounds in the assay medium were transferred to the cells with 0.4% DMSO in the final assay at 2 μM. After removing the culture media, 10,000 Jurkat-PD-1-NFAT effector cells in 5 μL assay medium was dispensed into each well. The assay plate was incubated at 37° C., 5% CO2 for 24 hours. After the assay plate was equilibrated to room temp for 15 minutes, 20 μL/well of Bio-Glo™ reagent (Promega) were added. After 8 minutes incubation at room temperature, luminescence was read at with Pherastar microplate reader (BMG Labtech). The fold of induction (FOI) was calculated based on the ratio of luminescence normalized to the DMSO wells within each assay plate. The maximum percentage of induction was reported based on the ratio between the highest FOI of each compound and the maximum FOI of control compound within each assay plate. Wells with DMSO were served as the negative controls and wells containing control compound with the highest FOI were used as positive controls. EC50 determination was performed by fitting the curve of percent control activity versus the log of the compound concentration using the GraphPad Prism 6.0 software.

Data set [2] relates to U2OS/PD-L1 cells and Jurkat-PD-1-SHP cells. Description: Src homology region 2 domain-containing phosphatase (SHP) assay. It counts as cell-based. The conditions noted are these: Homo sapiens, U2OS; PathHunter chemiluminescence, 2 hours. On the procedure: U2OS/PD-L1 cells (DiscoveRx Corporation) were maintained in McCoy's 5A medium with addition of 10% FBS, 0.25 μg/mL Puromycin. After removing the culture media, the cell medium was replaced with assay medium (RPMI1640 medium with 1% FBS). The U2OS/PD-L1 cells were then added in 384-well black clear bottom assay plate (CELLCOAT® Tissue Culture Plates, Greiner Bio-One) at 5000 cells per well in 20 μL assay medium. Test compounds were prepared by serial dilution in DMSO and 125 nL compound were first transferred to the 384 REMP plate well (Thermofisher) by ECHO liquid handler (Labcyte) followed with addition of 27.5 μL assay medium. 5 µL/well compounds in the assay medium were transferred to the cell plate with 0.05% DMSO in the final assay at 0.25 μM. Jurkat-PD-1-SHP cells (DiscoveRx Corporation) were cultured in RPMI1640 medium supplemented with 10% FBS, 250 μg/mL Hygromycin B, 500 μg/mL G418. After the replacement of culture media with assay medium, 5,000 Jurkat-PD-1-SHP cells in 20 μL were dispensed into each well. The assay plate was incubated at 37° C., 5% CO2 for 2 hours before 2.5 μL PathHunter reagent 1 (DiscoveRx Corporation) were added to each well. The assay plate was shaken for 1 min at 350 rpm in the dark followed with addition of 10 μL PathHunter reagent 2 (DiscoveRx Corporation). Chemiluminescent signal was recorded with TopCount reader (Perkin Elmer) after incubation at room temperature for 1 hour. Wells with DMSO were served as the positive controls and wells containing no cells were used as negative controls. IC50 determination was performed by fitting the curve of percentage of control activity versus the log of the compound concentration using the GraphPad Prism 6.0 software.

For the next data set, the target named is PD-1/PD-L1 (Homo sapiens (Human), UniProt Q9NZQ7). Description: Homogeneous Time-Resolved Fluorescence (HTRF) PD-1/PD-L1 binding assay. The following applies: recombinant human PD-1 and PD-L1. As for the experimental part:
The assays were conducted in a standard black 384-well polystyrene plate with a final volume of 20 μL. Inhibitors were first serially diluted in DMSO and then added to the plate wells before the addition of other reaction components. The final concentration of DMSO in the assay was 1%. The assays were carried out at 25° C. in the PBS buffer (pH 7.4) with 0.05% Tween-20 and 0.1% BSA. Recombinant human PD-L1 protein (19-238) with a His-tag at the C-terminus was purchased from AcroBiosystems (PD1-H5229). Recombinant human PD-1 protein (25-167) with Fc tag at the C-terminus was also purchased from AcroBiosystems (PD1-H5257). PD-L1 and PD-1 proteins were diluted in the assay buffer and 10 μL was added to the plate well. Plates were centrifuged and proteins were preincubated with inhibitors for 40 minutes. The incubation was followed by the addition of 10 μL of HTRF detection buffer supplemented with Europium cryptate-labeled anti-human IgG (PerkinElmer-AD0212) specific for Fc and anti-His antibody conjugated to SureLight®-Allophycocyanin (APC, PerkinElmer-AD0059H). After centrifugation, the plate was incubated at 25° C. for 60 min. before reading on a PHERAstar FS plate reader (665 nm/620 nm ratio). Final concentrations in the assay were—3 nM PD1, 10 nM PD-L1, 1 nM europium anti-human IgG and 20 nM anti-His-Allophycocyanin. IC50 determination was performed by fitting the curve of percent control activity versus the log of the inhibitor concentration using the GraphPad Prism 5.0 software.

For a further data set, the target named is PD-L1 (Homo sapiens (Human), UniProt Q9NZQ7). The data set is described as follows: PD-L1 whole blood internalization assay. Format: cell-based. The following applies: PD-L1 internalization in human whole blood, CD14+ cells, interferon γ, 24 hour. On the procedure:
To determine PD-L1 internalization in human whole blood, normal human blood (Biological Specialty Corp, Colmar. Pa.) was incubated in the presence or absence of a concentration range of test compounds and 1 ng/mL human interferon γ (R&D Systems Inc. Minn. […] Blood was then stained with PD-L1 (MIH1, eBioscience; or BD Biosciences San Jose, Calif.), CD14 (Life Technologies, Carlsbad, Calif.) for 30 minutes in the dark at room temperature. Whole Blood/red cells were lysed/fixed (lysis buffer BD Biosciences) for 5 minutes at 37° C. in the dark and then centrifuged at 1600 RPM for 5 minutes. Cells were resuspended in Stain Buffer (BD Bioscience, San Jose, Calif.) and transferred into 96 well round bottom plates (Corning). Cells were gated on CD14+(BD Biosciences) and PD-L1 expression determined by mean fluorescence intensity (MFI) (BD LSRFortessa™ X-20). IC50 determination was performed by fitting the curve of compound percent inhibition versus the log of the compound concentration using the GraphPad Prism 7.0 software.

The nature of data set [3]: In vivo pharmacokinetics in rats. The following applies: rat, cassette dosing. Also on record: species or system Sprague Dawley rats. As for the experimental part: For in vivo pharmacokinetic experiments, test compounds were administered to male Sprague Dawley rats or male and female Cynomolgus monkeys intravenously or via oral gavage. For intravenous (IV) dosing, test compounds were dosed at 0.5 to 1 mg/kg using a formulation of 10% dimethylacetamide (DMAC) in acidified saline via IV bolus for rat and 5 min or 10 min IV infusion for monkey. For oral (PO) dosing, test compounds were dosed at 1.0 to 3.0 mg/kg using 5% DMAC in 0.5% methylcellulose in citrate buffer (pH 3.5). Blood samples were collected at predose and various time points up to 24 hours postdose. All blood samples were collected using EDTA as the anticoagulant and centrifuged to obtain plasma samples. The plasma concentrations of test compounds were determined by LC-MS methods. The measured plasma concentrations were used to calculate PK parameters by standard noncompartmental methods using Phoenix® WinNonlin software program (version 7.0, Pharsight Corporation).
In rats and monkeys, cassette dosing of test compounds were conducted to obtain preliminary PK parameters.

Where [4] appears, read: male, Sprague-Dawley, plasma, 1.0 mg/kg IV.

PD-1/PD-L1, sequence (Q9NZQ7 19-238): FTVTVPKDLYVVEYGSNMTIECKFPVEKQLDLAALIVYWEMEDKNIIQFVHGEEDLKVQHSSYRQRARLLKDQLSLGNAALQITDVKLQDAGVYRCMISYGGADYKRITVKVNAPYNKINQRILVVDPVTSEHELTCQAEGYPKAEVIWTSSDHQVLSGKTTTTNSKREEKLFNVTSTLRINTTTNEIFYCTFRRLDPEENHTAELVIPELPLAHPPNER
PD-L1, sequence (Q9NZQ7 19-290): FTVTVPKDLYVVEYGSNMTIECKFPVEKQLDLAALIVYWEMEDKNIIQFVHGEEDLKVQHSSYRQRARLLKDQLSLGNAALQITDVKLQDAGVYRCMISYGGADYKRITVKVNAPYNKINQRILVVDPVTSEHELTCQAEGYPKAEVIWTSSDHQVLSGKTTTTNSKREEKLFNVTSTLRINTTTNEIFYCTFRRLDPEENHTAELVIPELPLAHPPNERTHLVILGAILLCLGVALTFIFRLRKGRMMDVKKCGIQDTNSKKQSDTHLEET

Compound `Cc1c(Nc2nc(C(F)F)nc3cc(CN4CC[C@H](O)C4)cnc23)cccc1-c1cccc(NC(=O)c2nc3c(n2C)CCN(CCC24CCC(C(=O)O)(CC2)C4)C3)c1Cl` [Example 3, (S)-4-(2-(2-((2-chloro-3′-((2-(difluoromethyl)-7-((3-hydroxypyrrolidin-1-yl)methyl)pyrido[3,2-d]pyrimidin-4-yl)amino)-2′-methyl-[1,1′-biphenyl]-3-yl)carbamoyl)-1-methyl-1,4,6,7-tetrahydro-5H-imidazo[4,5-c]pyridin-5-yl)ethyl)bicyclo[2.2.1]heptane-1-carboxylic Acid] came in with an EC50 in data set [1] of 4 nM. For the same compound, the values for the half-maximal inhibitory concentration (IC50) (in data set [2]; on PD-1/PD-L1; at PD-L1) were 2.5 nM, 1.5 nM and 18 nM, respectively.
The compound `Cc1c(Nc2nc(C(F)F)nc3cc(CN4CC[C@](C)(O)C4)cnc23)cccc1-c1cccc(NC(=O)c2nc3c(n2C)CCN(CCC24CCC(C(=O)O)(CC2)C4)C3)c1Cl` [Example 4, (S)-4-(2-(2-((2-chloro-3′-((2-(difluoromethyl)-7-((3-hydroxy-3-methylpyrrolidin-1-yl)methyl)pyrido[3,2-d]pyrimidin-4-yl)amino)-2′-methyl-[1,1′-biphenyl]-3-yl)carbamoyl)-1-methyl-1,4,6,7-tetrahydro-5H-imidazo[4,5-c]pyridin-5-yl)ethyl)bicyclo[2.2.1]heptane-1-carboxylic Acid] displayed a concentration for a half-maximal effect (EC50) in data set [1] of 4 nM. Further, the IC50 in data set [2] stood at 3.5 nM; at PD-1/PD-L1 it was 1.9 nM; against PD-L1, 17 nM.
In the case of `Cc1c(NC(=O)c2nc3c(n2C)CCN(CCC24CCC(C(=O)O)(CC2)C4)C3)cccc1-c1cccc(Nc2nc(C(F)F)nc3cc(CN4CC[C@@](C)(O)C4)cnc23)c1C` [Example 6, (R)-4-(2-(2-((3′-((2-(difluoromethyl)-7-((3-hydroxy-3-methylpyrrolidin-1-yl)methyl)pyrido[3,2-d]pyrimidin-4-yl)amino)-2,2′-dimethyl-[1,1′-biphenyl]-3-yl)carbamoyl)-1-methyl-1,4,6,7-tetrahydro-5H-imidazo[4,5-c]pyridin-5-yl)ethyl)bicyclo[2.2.1]heptane-1-carboxylic Acid], the EC50 in data set [1] came to 8.2 nM. In data set [2], this compound returned an IC50 of 2.2 nM. In data set [3] (setting [4]), this compound showed a clearance of 12.7 mL/min/kg and a half-life of 4.5 h. Also, the Vd in data set [3] (male, Sprague-Dawley, plasma, 1.0 mg/kg IV, read-out: Vss) worked out at 2.99 L/kg. The compound also registered a Cmax in data set [3] (male, Sprague-Dawley, plasma, 3.0 mg/kg PO) of 182 nM. In data set [3] (male, Sprague-Dawley, plasma, 3.0 mg/kg PO, read-out: AUC0-inf), the AUC(0-inf) stood at 1.43 µM·h. The compound further gave a F in data set [3] (3.0 mg/kg PO) of 30%. This compound also gave an IC50 against PD-L1 of 31 nM.
The compound `Cc1c(Nc2nc(C(F)F)nc3cc(CN4CCCC4)cnc23)cccc1-c1cccc(NC(=O)c2nc3c(n2C)CCN(CCC24CCC(C(=O)O)(CC2)C4)C3)c1Cl` [Example 7, 4-(2-(2-((2-chloro-3′-((2-(difluoromethyl)-7-(pyrrolidin-1-ylmethyl)pyrido[3,2-d]pyrimidin-4-yl)amino)-2′-methyl-[1,1′-biphenyl]-3-yl)carbamoyl)-1-methyl-1,4,6,7-tetrahydro-5H-imidazo[4,5-c]pyridin-5-yl)ethyl)bicyclo[2.2.1]heptane-1-carboxylic Acid] registered a half-maximal effective concentration (EC50) in data set [1] of 4 nM. For the same compound, the concentration for half-maximal inhibition (IC50) in data set [2] was 2.2 nM; at PD-1/PD-L1, 1.5 nM; on PD-L1, 16 nM.
As for `Cc1c(Nc2nc(C(F)F)nc3cc(CN4CCC[C@H]4C)cnc23)cccc1-c1cccc(NC(=O)c2nc3c(n2C)CCN(CCC24CCC(C(=O)O)(CC2)C4)C3)c1Cl` [Example 8, (R)-4-(2-(2-((2-chloro-3′-((2-(difluoromethyl)-7-((2-methylpyrrolidin-1-yl)methyl)pyrido[3,2-d]pyrimidin-4-yl)amino)-2′-methyl-[1,1′-biphenyl]-3-yl)carbamoyl)-1-methyl-1,4,6,7-tetrahydro-5H-imidazo[4,5-c]pyridin-5-yl)ethyl)bicyclo[2.2.1]heptane-1-carboxylic Acid], in data set [1], the concentration giving a half-maximal response (EC50) was 7 nM. Also, the IC50 came out at 4 nM in data set [2], 1.5 nM on PD-1/PD-L1 and 33 nM at PD-L1.
In turn, `Cn1c(C(=O)Nc2cccc(-c3cccc(NC(=O)c4nc5c(n4C)CCN(C4CCOCC4)C5)c3Cl)c2Cl)nc2c1CCN(CC13CCC(C(=O)O)(CC1)C3)C2` [Example 179, reference compound] showed an EC50 in data set [1] of 709 nM. Also, the IC50 is 61 nM in data set [2] and 18 nM on PD-1/PD-L1.
